Experimental data from patent US20190350885A1, “PROPHYLAXIS TREATMENT FOR ACUTE MYELOID LEUKEMIA” (Indiana University Research and Technology Corporation, priority 2017, published 2019).
Entries after “also recorded” stand apart in the source; their conditions may differ.

How the values were obtained:
[1] = tested on: aged Tet2-KO mice; test: Treatment of aged Tet2-KO mice with early signs of MPN; format: in vivo, mouse; settings: for frequency of LSKs and CMPs / neutrophil counts (absolute numbers, burden) in peripheral blood / neutrophil frequency (percentage) in peripheral blood / platelet counts / red blood cell (RBC) counts (anemia) / serum IL-6 levels / spleen weight / splenomegaly / white blood cell (WBC) burden/count: treatment for 14 days; for early signs of MPN: aged Tet2-KO mice
Method: (§1) Lipopolysaccharide (LPS) was purchased from Sigma (Cat # L8643) and dissolved in sterile phosphate-buffered saline (PBS) prior to being given to the mice for one dose only (0.8 mg/kg, i.p.). APX3330 (also referred to herein as E3330) was dissolved in Cremophor:EtOH (1:1) (Cremophor were purchased from Sigma, Cat # C5135) for making solution stock and then diluted in PBS prior to be used for pre-LPS treatment or post-LPS treatment (20 mg/kg, twice a day, i.p.). SHP099 (provided by Norvartis), was dissolved in 0.5% Methylcellulose (Sigma, Cat# M0262) and 0.1% Tween-80 (Fisher Scientific, Cat #BP338-500) and fed to animals by gavage (daily, 50 mg/kg). Male and female mice between 3-4 weeks (juvenile mice) or 8-16 weeks (adult mice) of age were used for LPS or LPS plus APX3330 experiments. Age and sex matched mice were always used as naïve (Day 0) controls. Aged Tet2-KO mice (male or female, 6-8 months of age) were used for APX3330 or SHP099 treatment in FIGS. 11A-11D.
(§2) Hematological analysis on peripheral blood (PB, from tail-bleeding) was run by an automated cell counter machine (Drew Hemavet 950). Total bone marrow (BM) cells were harvested from two femurs and two tibias of mice and filtered on 50-μm sterile filters. BM cells were always kept on ice or in refrigeration and stored in sterile blocking buffer containing 2% rat-serum prior to analysis. BM cellularity (viable cell counts) was analyzed by an automated cell counter (Beckman the Vi-CELL™ Cell Counter for Cell Viability Analyzer).
(§3) Flow cytometry. Non-lysed BM cells were used for analysis of erythroid lineage and progenitor cells (Ter119 and CD71 staining). Remaining flow cytometry analysis was performed on lysed bone marrow cells (Lysis Buffer, BD, Cat #555899). Antibodies against Ter119, Mac1, Gr1, B220, CD3, CD4 and CD8 were used for mature cells labeling (Linage labeling). Progenitor cells were labeled and analyzed by indicated markers. Antibody-labeled BM cells were run on a BD FACS-CANTO II machine with a two-laser and six-filter configuration. The properly compensated flow data were analyzed by Flow Jo software (V10.2). Events plotting, calculation of frequency and mean of fluorescence intensity (MFI), and histogram overlaying were analyzed by Flow Jo software.
Multiplex cytokine assays. Serum samples were prepared from PB (tail-bleeding) and diluted in sterile PBS (1 to 2 dilution(s)). Thirty-one cytokines or chemokines were quantified by multiplex immunoassay with a BioPlex 200 instrument (Eve Technologies, Mouse Cytokine Array/Chemokine Array 31-Plex, Cat # MD31).
Statistics. All experimental procedures on Tet2-KO samples were run in parallel with wildtype controls (sex and age matched littermate controls when possible) for observing experimental variabilities. Analysis of grouped data was not blinded and no samples were excluded. Aged Tet2-KO mice were randomized into two groups for treatment with APX3330 or vehicle, SHP099 or vehicle (FIGS. 11A-11D). P-value was calculated using an unpaired t-test for comparing means of two groups (GraphPad Prism 6.0). Error bars in FIGS. 1-10 and 11A indicate the standard error of mean (s.e.m.) while error bars in FIG. 11C indicate the standard deviation (s.d.). Except that the secondary cBMT was performed in only one independent experiment for each group, all other assays were performed in at least two independent experiments with at least 3-5 biological replicates in total.
Furthermore, aged Tet2-KO maintained higher level of serum IL-6 compared to wildtype mice (FIG. 13H). 6-month old Tet2-KO mice were treated with APX3330 or SHP099 to assess the potential therapeutic benefit of these drugs in older mice (daily treatment for 14 days, FIG. 13I).

[2] = tested on: Tet2-KO mice; test: LPS-induced acute inflammation (emergency granulopoiesis/hematopoiesis) in mice; format: in vivo, mouse; settings: for LPS-induced expansion of LSK cells in bone marrow / LPS-induced emergency neutrophil production in peripheral blood (emergency granulopoiesis): LPS 0.8 mg/kg i.p. one dose, drug two days before and two days after LPS, day 2 post LPS; for LPS-induced emergency neutrophil production in peripheral blood (emergency granulopoiesis): APX3330 20 mg/kg twice a day i.p., SHP099 50 mg/kg daily gavage
Source text: Mice, LPS treatment and peripheral blood analysis. All mice were bred and maintained under specified pathogen-free (SPF) conditions at an animal facility at Indiana University School of Medicine. Experiments with mice were approved by the Institutional Animal Care and Use Committee (IACUC) of Indiana University School of Medicine. Tet2-knockout mice (Tet2^−/−, or Tet2-KO, CD45.2) is on C57BL/6 genetic background and has been previously described in Li et al., Blood 118, 4509-4518 (2011). Normal C57BL/6 (wild type, CD45.2) mice were purchased from The Jackson Laboratory and used as controls for all experiments. Whenever possible littermates were used as controls for all experiments.
as §1, §2, §3
It was next examined if APX3330 or SHP099 could repress inflammation and “emergency hematopoiesis” in Tet2-KO mice in vivo. It was first assessed if APX3330 or SHP099 could normalize LPS-induced acute inflammation. Before challenging the mice with LPS, wildtype and Tet2-KO mice were prophylactically treated with APX3330 or SHP099 for two days. Post LPS treatment, APX3330 or SHP099 was continuously injected in these mice for another two days (FIG. 13A). On day 2, post LPS treatment, mice were sacrificed and analyzed.

[3] = tested on: Morrbid promoter; test: CHIP-qPCR assay of IκBζ and Stat3 binding; format: cell-based, mouse; settings: Tet2-KO Lin-negative bone marrow cells
Source text: CHIP-qPCR assay. BM Lin-negative cells were used to extract chromatin DNA using MAGnify™ Chromatin Immunoprecipitation System (ThermoFisher) according to the manufacturer's instruction. CHIP purified chromatin DNA and input DNA were normalized to identical concentration for qPCR validation and enrichment analysis (1% enrichment of input level was defined as unit 1). The following antibodies were used for chromatin precipitation:Anti-IκBζ and Anti-Stat3 (Cell Signaling Technologies).

[4] = tested on: Tet2-KO Lin-negative bone marrow cells; test: CFU (colony forming unit) assay, primary and secondary replating; format: cell-based, mouse; settings: primary and secondary plating, in vitro
Source text: CFU assay. Bone marrow Lin-negative cells or LSK cells were isolated as described above and platted in a CFU assay using MethoCult™ GF M3434 (Stem Cell). Colonies were counted after 7-days of culture.

[5] = tested on: phospho-Stat3; test: phospho-Stat3 expression in Tet2-KO Lin-negative cells; format: cell-based, mouse
[6] = aged (6-month old) Tet2-KO mice
[7] = aged (6-month old) Tet2-KO mice, listed as E3330

Structure (SMILES) | frequency of LSKs and CMPs [1, 6] | neutrophil counts (absolute numbers, burden) in peripheral blood [1, 6] | neutrophil frequency (percentage) in peripheral blood [1, 6] | platelet counts [1, 6] | red blood cell (RBC) counts (anemia) [1, 6] | serum IL-6 levels [1, 6] | spleen weight / splenomegaly [1, 6] | white blood cell (WBC) burden/count [1, 6] | early signs of MPN [1] | LPS-induced expansion of LSK cells in bone marrow [2] | LPS-induced emergency neutrophil production in peripheral blood (emergency granulopoiesis) [2] | IκBζ and Stat3 binding to Morrbid promoter [3] | colony forming ability (CFU formation) [4] | also measured
CCCCCCCCCC(=CC1=C(C)C(=O)C(OC)=C(OC)C1=O)C(=O)O [APX3330] | failed to reverse | significantly reduced | significantly reduced | restored | restores; also recorded: rescued to normal levels | reduced | a reduction in spleen weight was also observed in drug treated Tet2-KO mice, although it did not reach statistical significance; also recorded: failed to alter splenomegaly | significantly reduce; also recorded: restores | reverses early signs of MPN | significant correction; also recorded: effectively repressed; also recorded: represses the expansion of LSK cells | significant correction in the enhanced production of neutrophils; also recorded: effectively repressed; also recorded: represses emergency neutrophil production | reduced IKBζ and Stat3 binding to Morrbid promoter | normalization of colony formation; also recorded: block the enhanced colony forming activity | hematocrits (HCT) [1, 6]: rescued to normal levels; neutrophil counts (absolute numbers, burden) in peripheral blood [1, 7]: rescue; neutrophil frequency (percentage) in peripheral blood [1, 7]: rescue; serum IL-6 levels [1, 7]: rescue; early signs of MPN ([1]; listed as E3330): reversed early signs of MPN; LPS-induced emergency neutrophil production in peripheral blood (emergency granulopoiesis) ([2]; listed as E3330): repressed; LPS-induced expansion of LSK cells in bone marrow ([2]; listed as E3330): repressed; bone marrow cellularity ([2]; LPS-treated wild type and Tet2-KO mice, short-term treatment): maintained normal bone marrow cellularity; IκBζ and Stat3 binding to Morrbid promoter ([3]; listed as E3330): rescues the enhanced binding of IκBζ and Stat3 to the Morribid promoter; colony forming ability (CFU formation) ([4]; listed as E3330): corrected the enhanced colony forming ability
CC1(N)CCN(c2cnc(-c3cccc(Cl)c3Cl)c(N)n2)CC1 [SHP099, 6-(4-amino-4-methyl-1-piperidinyl)-3-(2,3-dichlorophenyl)-2-pyrazinamine] | failed to reverse | significantly reduce; also recorded: rescue | rescue | restored | restores | reduced; also recorded: rescue | a reduction in spleen weight was also observed in drug treated Tet2-KO mice, although it did not reach statistical significance | significantly reduce; also recorded: restores | reversed early signs of MPN | significant correction; also recorded: effectively repressed | significant correction in the enhanced production of neutrophils; also recorded: effectively repressed | decreased; also recorded: rescues the enhanced binding of IκBζ and Stat3 to the Morribid promoter | decreased; also recorded: block the enhanced colony forming activity; also recorded: corrected the enhanced colony forming ability | expression of phospho-Stat3 [5]: decreased expression of phospho-Stat3
